Measurements reported in patent US8637484B2, “Modulation of growth hormone receptor expression and insulin-like growth factor expression” (Antisense Therapeutic Limited, priority 2003, dated 2014).
Marks after values point to notes of the source that are not given here. In the oligonucleotide strings, read from the 5' end, every base follows the letter of its sugar. An asterisk marks phosphorothioate; unmarked linkages are phosphodiester. Other units and linkages are bracketed, terminal groups are in braces. A string of capitals states the bases alone. e = 2'-O-(2-methoxyethyl) (MOE); [5mC] = 5-methylcytosine; d = 2'-deoxy (DNA)

Experiments:
Type in all cases: in vivo, mouse
[1] = system: blood vessel profiles (BVPs) in the inner retina; assay: Oxygen-induced retinopathy (ROP) in mice, blood vessel profiles in the inner retina
Experimental: Oxygen-induced retinopathy (also called retinopathy of prematurity or ROP) in laboratory animals is a widely used model for the study of retinal microvascular complications. Wilkinson-Berka et al., 2003, Invest. Opthalmol. V is Sci. 44, 974; Morayski, C. et al., 2000, Hypertension, 36,1099-1104.
To produce ROP, seven-day-old mice were placed in an infant incubator with their nursing mother in 75% oxygen from postnatal day 7 to day 12 as described in the literature. Smith et al., 1994, Invest Ophthalmol V is Sci 35, 101-111; Robinson et al., Proc Natl Acad Sci USA., 1996, May 14; 93, 4851-6. On postnatal day 12, the animals were returned to room air. Animals were sacrificed on postnatal day 17 when maximal neovascularization is observed. Sham-treated animals are handled similarly but are maintained in room air at all times.
Mice were dosed with antisense oligonucleotide in saline (total volume […]) at postnatal days 12, 13, 14, 15, and 16 or days 7, 8, 9, 11, 13, 15 and 17. Oligonucleotide was administered intraperitoneally at concentrations of 5, 10, 20 and 30 mg/kg. The mismatch control ISIS 261303 is also given.
Blood vessel profiles (BVPs) in the inner retina are quantitated in eyes from 36 experimental groups. Each group contains 8 retina from 8 different mice. Tables 7, 8 and 9 indicate 1) from which groups eyes have been collected to date for sectioning and 2) how many animals have had BVPs quantitated to date in each experimental group.
“Early intervention” (“Early I” in Tables 8-10) is used to describe mice pups that have been administered agents at postnatal days 7, 8, 9, 11, 13, 15 and 17 (7 doses). “Late intervention” (“Late I” in Tables 7-10) is used to describe mice pups administered agents at postnatal days 12, 13, 14, 15 and 16 (5 doses). All treatments were by intraperitoneal injection. Counting of blood vessel profiles (BVPs) in the inner retina is performed in a masked manner by investigators blinded to the experimental groups.

[2] = system: growth hormone receptor; assay: [125I] hGH specific binding assay on liver microsomal membranes of treated mice
Experimental: Specific binding assays were carried out with liver tissue using iodinated human growth hormone [^125I] hGH.
Microsomal membrane preparations were obtained as follows. 400 mg of tissue powder was homogenized in cold homogenizing buffer (50 mM Tris/HCl, 250 mM sucrose, pH 7.4). This was centrifuged at 2000 rpm for 10 min at 3° C. and the supernatant was saved. This was centrifuged again at 15,000 rpm for 20 min. Pellets were resuspended in 0.5 ml of RRA buffer with inhibitor (50 mM Tris, 20 mM MgC12, pH 7.4). Microsomal preparation samples were stored at −80° C. until the specific binding assay.
The [^125I] hGH specific binding assay was done as follows. Four glass tubes were set up for each sample, two for (−), two for (+). Different sample and solutions were added in each tube as follows (i) 0.2 ml RRA buffer (50 mM Tris, 20 mM MgCl2, 0.1% BSA, pH 7.4); (ii) 0.1 ml membrane (1/2 or 1/4 dilution); (iii) 0.1 ml bGH (10 μg/ml) for the (+) tube or 0.1 ml RRA buffer for the (−) tube; and (iv) 0.1 ml [^125I]-hGH tracer.
Samples were incubated at 4° C. with shaking overnight. The reaction was stopped with 2.5 ml of cold RRA, and the sample centrifuged at 2800 rpm for 25 min at 4° C. Supernatant was aspirated and pellets counted using the γ-counter. The specific binding capacity was calculated as: CPM(−)-CPM(+) Protein content of the microsomal samples was determined by the BCA protein assay.

[3] = system: serum IGF-I; assay: Serum IGF-I, additional 1 week study in mice; conditions: 50 mg/kg once every 2 days, day 7
Experimental: Male Balb/C(a) mice were prepared and grouped for analysis as in Example 18 above.
Animals (n=10/group) were designated to the following treatment groups:
Animals were treated and serum IGF-I levels were measured as in Example 18 above. Briefly, for the one-week study, mice were given a subcutaneous dose of saline every second day, and mismatch control or antisense with administration on days 0, 2, 4, 6. On day 7, the animals were anaesthetized with pentobarbital and non-fasting blood samples collected exactly 5 minutes later from the retrobulbar plexus through heparinized capillary tubes under light ether anesthesia. Serum IGF-I measurement was done by radioimmunoassay at day 7.

[4] = 30 mg/kg every second day for one week, liver membranes

acaaagatccatacctgaga (eA*e[5mC]*eA*eA*eA*dG*dA*dT*d[5mC]*d[5mC]*dA*dT*dA*d[5mC]*d[5mC]*eT*eG*eA*eG*eA; antisense) [ISIS 227446]
Average # BVPs ([1]; ROP + 5 mg/kg ip, Early I): 28.25
Average # BVPs ([1]; ROP + 5 mg/kg ip, Late I): 25.19
Average # BVPs ([1]; ROP + 10 mg/kg ip, Early I): 23.18
Average # BVPs ([1]; ROP + 30 mg/kg ip, Late I): 24.24
Average # BVPs ([1]; Sham + 20 mg/kg ip, Early I (postnatal days 7, 8, 9, 11, 13, 15, 17)): 9.97*
Average # BVPs ([1]; Sham + 30 mg/kg ip, Early I): 10.94*
Average # BVPs ([1]; Sham + 30 mg/kg ip, Late I (postnatal days 12-16)): 11.25*
effect on blood vessel profiles in sham-treated (no retinopathy) mice ([1]; early intervention): no effect
reduction of specific binding compared to saline, ¼ dilution ([2]; 30 mg/kg): 39%
reduction of specific binding compared to saline, ½ dilution ([2]; 30 mg/kg): 26%
Specific binding/mg protein (cpm) ¼ dilution [2, 4]: 5546 ± 789 cpm
Specific binding/mg protein (cpm) ½ dilution [2, 4]: 4205 ± 534 cpm
growth hormone receptor levels (growth hormone binding activity), % of control (saline) group ([2]; 30 mg/kg sc every second day for one week): 61%
growth hormone receptor levels, % of the control (mismatch) group ([2]; 30 mg/kg, ½ dilution experiment): 59%
reduction of serum IGF-I relative to saline control [3]: 33%
reduction of serum IGF-I relative to the unrelated control [3]: 20%
